Reference: the METLIN SMRT retention time set (Domingo-Almenara et al. 2019)

Assay: gradient 5% acetonitrile 3 min, to 50% in 2 min, to 85% in 15 min, held 3 min, 100 µL/min
Settings: column: Zorbax Extend-C18 2.1 x 50 mm; eluents: water / acetonitrile, 0.1% formic acid
How it was run: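 In both positive and negative ionization mode, a quadrupole time-of-flight mass spectrometer coupled to HPLC analyzed pure standards run in mixtures of ~100 molecules. The Zorbax Extend-C18 column (2.1 × 50 mm, 1.8 μm) was operated at 100 μL/min with water and acetonitrile, each containing 0.1% formic acid. The dead volume was 40 μL and the dwell volume 900 μL. Retention time came from adduct peaks that were computationally picked and individually inspected by hand.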

| SMILES | RP-LC retention time |
| --- | --- |
| C=CCn1c(=O)c2ccccc2n(Cc2nc(-c3ccccc3OC)no2)c1=O | 940 s |
| CCn1cccc1-c1nc(C)c(C(=O)Nc2ccc(C(C)C)cc2)s1 | 1310 s |
| COC1CN(c2ccc(C)cc2)C12CCNCC2 (stereo not given) | 622 s |
| CCC(CC)C(=O)Oc1coc(CSc2nc(C)cs2)cc1=O | 882 s |
| CCCc1cc(N2CCN(C(=O)c3ccc(C)s3)CC2)nc2nnc(C)n12 | 643 s |
| Cc1cc2[nH]c(=O)[nH]c2cc1S(=O)(=O)N1CCN(Cc2ccccc2)CC1 | 548 s |
| Cn1c(=O)c(C(=O)NC2CCCC2)nc2cccnc21 | 707 s |
| Cc1ccc(-c2nc(-c3ccc(-c4noc(CNC(=O)Cc5ccccc5)n4)cc3)cs2)s1 | 1200 s |
| CC(C)Cc1csc(-c2csc(S(=O)(=O)NCc3ccc(Cl)cc3)c2)n1 | 1240 s |
| COc1ccc(/C=C/c2nc(NCCCN(C)C)c3ccccc3n2)cc1 | 639 s |
| COc1ccc(NC(=O)c2sc3[nH]c(=O)c(C(=O)O)cc3c2N)c(OC)c1 | 681 s |
| Cn1cnc2c(C(=O)N3CCOCC3)nn(-c3ccc(Cl)cc3)c2c1=O | 690 s |
| COc1ccc(OC)c(S(=O)(=O)Nc2cccn3c(C4CCC4)nnc23)c1 | 772 s |
| CC(C)CN1CCN(C(=O)c2cn(-c3cc(N4CCC(C)CC4)ncn3)cn2)CC1 | 663 s |
| CCN1CCN(c2cc(C)c3cc(NC(=O)CC4CCCC4)ccc3n2)CC1 | 595 s |
| COC(=O)CCNC(=O)C1c2ccccc2C(=O)N(C2CCCCC2)C12CCCCC2 (stereo not given) | 1010 s |
| Fc1ccc(Cn2cc(-c3noc(-c4cccc(F)c4)n3)nn2)cc1 | 1010 s |
| COc1ccc(CN(C)Cc2cc(=O)c3cc(C)ccc3[nH]2)cc1OC | 588 s |
| O=C(c1cccc(Nc2c(-c3ccccc3)nc3cnccn23)c1)N1CCOCC1 | 652 s |
| COc1ccc(OC)c(NC(=O)Cn2c(=O)n(-c3ccc(C)cc3)c3ncccc32)c1 | 896 s |
| Cc1cc(C(=O)NCC(O)(c2ccccc2)C(F)(F)F)no1 (stereo not given) | 776 s |
| COc1ccc(NC(=O)c2cnc(N3CCN(c4ccc(F)cc4)CC3)nc2N)cc1 | 776 s |
| Cc1ccccc1NC(=O)Nc1c(-c2ccccc2)nc2ccccn12 | 661 s |

| SMILES | RP-LC retention time |
| --- | --- |
| CCOc1ccc(-c2nc(C3CC(=O)N(c4ccc(F)c(Cl)c4)C3)no2)cc1 (stereo not given) | 1170 s |
| CCCC(=O)Nc1ccc2c(c1)CCC(=O)N2CCOC | 654 s |
| CC1CN(c2ccc(Br)cc2)c2nc3c(c(=O)n(CC(=O)O)c(=O)n3C)n2C1 (stereo not given) | 829 s |
| Cc1cccc2c1cnn2C(=O)CCC(=O)N1CCN(c2ccccn2)CC1 | 632 s |
| CCCn1c(=O)sc2cc(S(=O)(=O)N3CCC(C(=O)NCc4cccnc4)CC3)ccc21 | 643 s |
| Cc1cc(C)cc(NC(=O)N2CCN(c3cnn4c(C)nnc4c3)CC2)c1 | 634 s |
| COc1ccccc1NC(=O)N1CCCC1c1nc(-c2ccccc2)no1 (stereo not given) | 1010 s |
| COCCN1CCC2(CC1)CN(Cc1cc(C)ccc1C)Cc1ccccc1O2 | 718 s |
| CCn1c(C)cc(O)c(C(c2ccccc2[N+](=O)[O-])c2c(O)cc(C)n(CC)c2=O)c1=O | 884 s |
| COc1ccc(-c2noc(C3CC(=O)N(c4ccc(Cl)cc4)C3)n2)cc1 (stereo not given) | 1040 s |
| CC(C)CCNC(=O)c1c2c(cn(-c3ccccc3)c1=O)C(=O)CC(C)(C)C2 | 1030 s |
| O=C(Nc1cc(F)ccc1F)N1CCN(Cc2nc3cccnc3n2-c2ccccc2)CC1 | 676 s |
| COc1ccc(Br)cc1CNC(=O)CCC(=O)N1CCSc2nc(C)cc(C)c21 | 725 s |
| O=c1n(Cc2ccccc2Cl)nc2ccc(S(=O)(=O)N3CCCCC3)cn12 | 979 s |
| COc1cccc(-c2noc(Cc3nnc(-c4ccc(Cl)cc4)o3)n2)c1OC | 973 s |
| COc1ccc(Cl)cc1C(=O)NCC1(O)CCOCC1 | 622 s |
| CCOc1ccc(C(C)NC(=O)c2cn3ccc(C)cc3n2)cc1 (stereo not given) | 697 s |
| COc1ccccc1-c1nnc2sc(-c3cc(C)on3)nn12 | 823 s |
| O=C(Nc1cccc(-c2nnc3n2CCCC3)c1)C1CCCC1 | 673 s |
| COC[C@@H]1CN(C(=O)c2cc3cc(Cl)ccc3[nH]2)C[C@H]1C(N)=O | 672 s |
| CCCn1c(=O)sc2cc(S(=O)(=O)N3CCC(C(=O)NCc4ccccn4)CC3)ccc21 | 662 s |
| Fc1ccc2[nH]c(CN3CCN(c4ccccn4)CC3)cc2c1 | 649 s |
| Cc1ccc(C(=O)Nc2ccc(N3CCN(c4ccccc4)C3=O)nc2)cc1C | 1070 s |

| SMILES | RP-LC retention time |
| --- | --- |
| COCCCNC(=O)C1CCN(S(=O)(=O)N(CC(C)C)CC(C)C)CC1 | 877 s |
| COc1ccc(OC)c(CNC(=O)C2CCCN(c3nccnc3Sc3ccccc3)C2)c1 (stereo not given) | 1000 s |
| Cc1cc(C)n(-c2ccnc(N3CCN(CC(=O)NC(C)C)CC3)n2)n1 | 624 s |
| CCc1c(C2CCN(C(=O)c3ccc4c(c3)OCO4)CC2)noc1N | 696 s |
| CSc1cccc(NC(=O)CSc2nnc3c4cc(-c5ccc(C)c(C)c5)nn4ccn23)c1 | 1030 s |
| CS(=O)(=O)N1CCC(CNC(=O)C(=O)Nc2ccon2)CC1 | 609 s |
| O=C(Cc1cccc(Cl)c1)NC1CCN(c2cc(-c3cccs3)[nH]n2)C1 (stereo not given) | 702 s |
| COCC(=O)Nc1ccc2c(c1)CN(S(C)(=O)=O)CCO2 | 641 s |
| O=C(C1CCCO1)N1CCC(OCc2nc(-c3ccncc3)no2)CC1 (stereo not given) | 585 s |
| Cc1nc(-c2csc(S(=O)(=O)N3CCC(C(=O)NCCC4=CCCCC4)CC3)c2)no1 | 971 s |
| COc1ccc(NC(=O)Cn2nc(N3CCCC(C)C3)c3ccccc3c2=O)c(OC)c1 (stereo not given) | 1100 s |
| O=C(NCCC1=CCCCC1)C1CCN(Cc2cc3ccccc3n2Cc2ccc(Cl)cc2)CC1 | 917 s |
| CCN1CCn2cc(S(=O)(=O)Nc3ccc(F)cc3C)cc2C1=O | 730 s |
| CCc1nn2c(CNC(=O)c3ccc(Br)cc3)c(-c3ccccc3)nc2s1 | 1010 s |
| Cc1cc(Cl)ccc1S(=O)(=O)N1CCC(OC2CCN(CC3CC3)C2=O)CC1 (stereo not given) | 975 s |
| O=C(Nc1ccc2c(c1)OCCO2)C1CC(=O)N(CCc2c[nH]c3ccc(Cl)cc23)C1 (stereo not given) | 827 s |
| COc1ccc(Cl)cc1NC(=O)Cn1nc(N2CCSCC2)c2ccccc2c1=O | 1080 s |
| O=C(Cc1ccc(Cl)cc1)N1CC(Cc2nncn2CC2CC2)C1 | 686 s |
| Cc1sc2cc(C(=O)NCC3CC3)[nH]c2c1CN1CCCCC1 | 634 s |
| COc1cc(C(=O)NCCc2c[nH]c3ccc(F)cc23)cc(OC)c1OC | 781 s |
| Clc1ccc(-c2noc(Cc3nc(-c4ccccc4)cs3)n2)cc1 | 1290 s |
| COCCNC(=O)CCc1nc2ccccc2[nH]c1=O | 591 s |
| O=C(NCc1cccs1)C1CCCN(c2nnc3ccc(Cl)cn23)C1 (stereo not given) | 650 s |

| SMILES | RP-LC retention time |
| --- | --- |
| CCCOc1ccc(CN2C[C@@H](CO)[C@H](c3ccncc3)C2)cc1OC | 557 s |
| CCc1onc(C)c1C1CCCN1C(=O)c1cccc(F)c1 (stereo not given) | 784 s |
| CC(=O)c1sc2nc(SC/C=C/c3ccccc3)[nH]c(=O)c2c1C | 977 s |
| Cc1ccc(-c2nc(-c3cccc(-c4ccnn4C)c3)no2)c(C)c1 | 1330 s |
| Cc1ccc(-c2nnc(-c3nc(NCCC4=CCCCC4)c4ccccc4n3)o2)cc1 | 1300 s |
| O=C(NC1CCCCC1)C1CCCN(C(=O)c2cccc(Cl)c2)C1 (stereo not given) | 864 s |
| CCCN1C(=O)C2(c3ccccc31)c1[nH]c3ccccc3c1CCN2C(=O)NCC (stereo not given) | 793 s |
| CCCC(NC(=O)Cc1ccc(Cl)cc1)C(=O)Nc1nc2ccccc2[nH]1 (stereo not given) | 753 s |
| CCCn1c(=O)sc2cc(S(=O)(=O)N3CCC(C(=O)N4CCCCC4)CC3)ccc21 | 876 s |
| CCOc1ccc(C2C(C(=O)N3CCCCC3)=C(C)NC3=C2C(=O)CCC3)cc1OC (stereo not given) | 674 s |
| COCCNC(=O)N1CCCn2nc(-c3ccc(C(F)(F)F)cc3)cc2C1 | 839 s |
| O=C([C@@H]1C[C@H](F)CN1S(=O)(=O)Cc1ccc(Cl)cc1)N1CCc2ccccc2C1 | 1020 s |
| O=C(Cn1nc2nc(Nc3ccc(F)cc3)ccn2c1=O)N1CCOCC1 | 631 s |
| O=C(c1ccc(=O)n(CCN2CCOCC2)c1)N1CCN(c2ccccc2F)CC1 | 613 s |
| COC(=O)C1=CN(c2ccc(OC)cc2)c2ccccc2S1(=O)=O | 819 s |
| Cc1ccc(-n2nc(N3CCCN(S(=O)(=O)c4ccccc4F)CC3)ccc2=O)cc1 | 860 s |
| CC(C)Cn1cc(C(=O)O)c(S(=O)(=O)N2CCN(C(C)C)CC2)n1 | 609 s |
| COCCCN1CN=C(Nc2nc(C)c3cc(OC)ccc3n2)NC1 | 643 s |
| O=C(Cc1cccs1)N1CCC(COc2ccc(C(=O)N3CCOCC3)cc2)CC1 | 734 s |
| CCn1c(C2CCN(C(=O)c3ccc(C(F)(F)F)s3)C2)nc2cccnc21 (stereo not given) | 782 s |
| COC(=O)c1cc(S(=O)(=O)N2CCCC2C(=O)Nc2ccc(F)cc2Cl)cn1C (stereo not given) | 938 s |
